Entries after “also recorded” stand apart in the source; their conditions may differ.

The subject of data set [1] is purified pDC. The experiment in a line: IL-6 and TNF-α production by TLR-activated pDC, ELISA and real-time PCR. It is filed as cell-based, human. The settings on record: CpG-A or CpG-B 0.5 μM; 16 hr; ELISA. (In general: An ELISA detects its analyte on a solid surface through an enzyme-linked reagent.)
Data set [2] concerns purified human pDC. The experiment in a line: IFN-α production by TLR-activated purified pDC, ELISA. The data set is classed as cell-based. The note with it: for IFN-α production: subunit-specific PI3K inhibitors.
In data set [3] the test system is purified pDC. The experiment in a line: pDC viability, flow cytometry based LIVE/DEAD assay. It is filed as cell-based, human. The note with it: CpG-C 1 μM plus various concentrations of LY; 20 h; listed as LY. How it is done: Purified pDC were stimulated with CpG-C ISS (1 μM) either alone or in combination with various concentration of PI3K inhibitor LY. After 20 h, viability was assessed using a flow cytometry based viability assay (LIVE/DEAD Viability/Cytotoxicity Kit from Molecular Probe). Average of […] independent donors is shown.

Data set [4] concerns NF-kB p65 (pS529). The experiment in a line: NF-kB p65 phosphorylation in pDC, flow cytometry. The data set is classed as cell-based, human. The settings on record: CpG-C 1 μM; LY 1 or 5 μM, NF-kB inhibitor 0.5 μM; 90 min. The protocol:
Accordingly, purified PDC were cultured with CpG-C ISS (1 μM) with or without PI3K inhibitor LY (1 μM or 5 μM) or NF-kB inhibitor (0.5 μM) for 90 min and analyzed by NF-kB flow cytometry. As described above, negatively purified pDC were stimulated with CpG-C and cells were immediately fixed with 4% of paraformaldehyde for 15 min a 37 C. Cells were then washed, permeabilized with PermBuffer III (BD bioscience) for 30 minutes on ice and stained with either Alexa-647 anti-human NF-kB p65 (pS529) for 30 min and then analyzed by flow cytometry.
(In flow cytometry, cells or beads pass a laser one at a time.)

For the compound `O=c1cc(N2CCOCC2)oc2c(-c3ccccc3)cccc12` [LY294002], the “IL-6 production in response to CpG-A and CpG-B” value in data set [1] is given as “no significant inhibition”. Also, the “inhibition of IFN-α” value in data set [2] (LY concentrations as low as 0.08 μM, TLR9) was 50%. For the same compound, the “concentration of maximal effect on IFN-α production” value in data set [2] (both TLR7 and TLR9 ligands, 16 hr) amounted to 1.25 µM. Also, the pDC viability result in data set [3] is “no negative effect; also recorded: does not affect”.

On to `O=C1NC(=O)/C(=C/c2ccc3c(c2)OC(F)(F)O3)S1` [AS604850], for which, in data set [2] (CpG-C 1 μM, 16 hr, specificity for gamma subunit lost), the “concentration at which an effect on IFN-α production is observed” value is > 20 µM. Also, in data set [2] (CpG-C 1 μM, 16 hr), the IFN-α production entry is reported as “did not observe any effect”.

For `NC(=O)Nc1sc(-c2ccc(F)cc2)cc1C(N)=O` [NF-kB inhibitor], the NF-kB phosphorylation entry in data set [4] is recorded as “inhibited”.

For `Cc1ccccc1-n1c(Cn2cnc3c(N)ncnc32)nc2cccc(C)c2c1=O` [IC87114], the IFN-α production result in data set [2] (CpG-C 1 μM, 16 hr) is reported as “inhibited”.

For the origin of these results see patent publication US20090131512A1, “Inhibition of type I in IFN production” (Dynavax Technologies Corp., priority 2007, published 2009).
